From a melting point compilation (Tetko et al.; mined from patent text by program, amines drawn as free bases though some values may be those of a salt) come the findings set out here.

The term melting point denotes the temperature, or range, at which the solid turns liquid.

In turn, `CC1(C)OC(c2ccc(S(N)(=O)=O)cc2)=C(c2cccc(C(F)(F)F)c2)C1=O` had a melting point of 129 to 130 °C.

On to `COc1cc(Cl)cc(Cn2c(=O)cc(C(F)(F)F)n(C)c2=O)c1Cl`, for which the melting point lay within 117 to 123 °C.

Compound `CCc1nccn1Cc1ccc2c(c1)-c1[nH]nc(-c3ccsc3)c1C2` yielded a melting point of 238 to 239 °C.

Turning to `O=C(Nc1cccc(Cl)c1)NC1CC(C2CCCCC2)c2ccccc2NC1=O` (configuration not stated), the melting point was 222 to 225 °C.

`CCOC(=O)C1=C(N)NC2=C(C(=O)CCC2)C1c1ccccc1-c1ccccc1` (configuration not stated) had a melting point of 248 °C.

In turn, `COc1nccnc1C1(O)CN2CCC1CC2` (configuration not stated) registered a melting point of 130 to 131 °C.

In the case of `CC(=O)c1ccc(C(C)=O)s1`, the melting point was 171 to 173 °C.

Consider `COc1cc(O)c2c(=O)c3c(oc2c1)oc1cc(O)ccc13`, for which the melting point was 265 to 268 °C.

The compound `O=C(NC(Cc1ccc(OCc2ccccc2)cc1)C(=O)O)c1cn2cc(-c3ccc(Cl)cc3Cl)ccc2n1` (configuration not stated) yielded a melting point of 237 to 239 °C.

As for `O=S(=O)(c1ccc(O)cc1)c1ncn(-c2ccccc2)c1-c1ccccc1`, the melting point was determined as 300 °C.

On to `O=C(NCc1ccc(Cl)c(Cl)c1)Nc1cccc2[nH]ccc12`, for which the melting point was found to be 201 °C.

Consider `O=[N+]([O-])c1cn(-c2cncc(F)c2)nc1Cl`, for which the melting point fell in the range of 110 to 111 °C.

For the compound `CC(C)=CC=C(C#N)c1ccccc1`, the melting point is 66 to 67 °C.

In turn, `Cc1nc(Cl)sc1C=O` yielded a melting point of 77 to 78 °C.

Regarding `Cc1cnc(CCCCCNc2ncc(Cc3ccc(C)nc3)c(=O)[nH]2)c(N)c1`, the melting point was in the range of 161 to 163 °C.

On to `COC1=NC(=O)N(C2CCCCC2)S(=O)(=O)N1`, for which the melting point is 173 to 177 °C.

Turning to `CN1CC=C(c2c[nH]c3ccc(C(=O)O)cc23)CC1`, the melting point turned out to be 249 °C.

`COc1ccc(S(C)(=O)=O)cn1` registered a melting point of 85 to 86.5 °C.

For the compound `CN(C)C[C@H]1CCSc2ccccc2[C@]1(O)c1cccc(O)c1` (racemic), the melting point lay in the range of 188 to 190 °C.

For the compound `Cc1cc(C)n2nc(NS(=O)(=O)c3cc(Cl)ccc3Cl)nc2n1`, the melting point is 216 to 218 °C.

In the case of `Cc1ccc2c(n1)Oc1ccc(C(C)C(=O)OCC(=O)N(C)C)cc1C2` (configuration not stated), the melting point lay within 150 to 151 °C.

Consider `CC1(C)OCC(NC(=O)c2ccc([N+](=O)[O-])cc2)CO1`, for which the melting point was found to be 211 °C.

`OCC1OC(n2c(Cl)nc3ccc(Cl)cc32)C(O)C1O` (configuration not stated) returned a melting point of 162 to 163 °C.

With `Cc1ccc(C2c3c(C)c(Br)c(C)c(C4OCCO4)c3OC2(C)C)cc1` (configuration not stated), the melting point fell in the range of 169 to 172 °C.

`COc1ccc2c(c1)c(=O)c(S(=O)(=O)N(C)C)cn2C` came in with a melting point of 199 to 201 °C.

For `CCC(N)=C(C(C)=O)C(=O)N(CCN(C)C)c1ccccc1`, the melting point lay within 103 to 105 °C.

`O=C(OC1CCN(Cc2ccccc2)CC1)c1ccc(I)cc1` returned a melting point of 77 to 78 °C.

In turn, `COP(=O)(OC)C(O)=Cc1ccc2c(c1)C(=O)Cc1ccccc1O2` displayed a melting point of 118 °C.

On to `CC(C)(C)OC(=O)CNc1ccccc1C(=O)c1ccccc1`, for which the melting point was 88 °C.

`FC(F)(F)c1ccc2c(C3CCNCC3)c[nH]c2c1`: the melting point was in the range of 210 to 214 °C.

In turn, `CC(C)(C)OC(=O)N1CCC(CCNC(=O)c2noc(-c3ccc(C#N)cc3)n2)CC1` returned a melting point of 138 to 139 °C.

In turn, `CN1COCN(Cc2ccc(Cl)nc2)C1=N[N+](=O)[O-]` came in with a melting point of 116 to 118 °C.

Take `Cc1cc2c(c(C(C)(C)C)c1)OC(=O)C2O` (configuration not stated): the melting point was in the range of 152 to 160 °C.

Compound `Cn1[nH]c(=O)n(-c2cc(F)c(C(=O)Cl)cc2F)c1=O` yielded a melting point greater than 250 °C.

Take `COc1ccc(-c2cccc(C3=CCC(OC(Cc4ccccc4)C(=O)O)(c4c(Cc5ccccc5)oc5ccccc45)C=C3)c2)cc1` (configuration not stated): the melting point is 73 to 75 °C.

As for `O=[N+]([O-])c1cn2c(n1)OC[C@@H](OCc1cnc(Cl)cn1)C2`, the melting point was 181 to 183 °C.

The compound `COC(=O)C=CC(=S)c1ccc(-c2ccccc2)cc1` gave a melting point of 85 to 86.5 °C.

Compound `COc1ccc(-c2ccc3c(c2)c2cc(Cl)cnc2n3S(=O)(=O)c2ccccc2)cc1` had a melting point greater than 220 °C.

`Cc1cc(SCc2ccccc2)ccn1` showed a melting point of 69 to 70 °C.

For `CCCN(C1=C(O)CC(C2CCCC2)(C2CCCC2)OC1=O)c1cccc(N)c1`, the melting point lay within 173 to 175 °C.

`COc1cc2ncc(C#N)c(Nc3cccc(CO)c3C)c2cc1OC`: the melting point was 123 to 125 °C.

`COc1cc(-c2nc(C)cs2)cc(OC)c1OC` displayed a melting point of 105 to 106 °C.

In the case of `Cc1cc(Cl)nnc1-c1cccc(C#N)c1`, the melting point was in the range of 153 to 155 °C.

On to `NC(=O)c1[nH]cnc1OC(=O)C=Cc1cccc([N+](=O)[O-])c1`, for which the melting point is 197 °C.

In turn, `CC(C)(C)OC(=O)CN(Cc1cc(C(F)(F)F)cc(C(F)(F)F)c1)Cc1cc2ccccc2nc1Cl` showed a melting point of 84 °C.

`O=C(O)Cc1nn(Cc2nc3cc(Br)ccc3s2)c(=O)c2ccccc12` had a melting point of 214 °C.

In turn, `Nc1cc(-n2cc(C(=O)O)c(=O)c3cc(F)c(Cl)nc32)ccc1F` showed a melting point greater than 270 °C.

`COc1ccc(Nc2nc(Cl)nc(NCCO)n2)cc1` gave a melting point of 169 to 173 °C.

For the compound `Cc1cccc(S(=O)(=O)N2CCCC2c2ccc(F)cc2)c1` (racemic), the melting point was found to be 102 °C.

With `CSc1nnc(-c2cc(C(C)(C)C)c(O)c(C(C)(C)C)c2)s1`, the melting point was determined as 122 °C.

For `O=C(Nc1cc(OCCCO/N=C/c2ccc(C(F)(F)F)cc2)ccc1C(=O)O)c1ccc(C(F)(F)F)cc1`, the melting point was 209 to 210 °C.

As for `COC(=O)C(CC(=O)c1cc(Cl)c(C)c(Cl)c1)OC` (configuration not stated), the melting point lay within 75 to 78 °C.

On to `Cc1cn(-c2cc(C)c(N)c(C#N)c2)c(C)n1`, for which the melting point lay in the range of 214 to 217 °C.

The compound `C=CCN1C(=O)c2cscc2Nc2ccccc21` gave a melting point of 105 to 106 °C.

`CCC(C#N)(C(=O)N1CCOCC1)c1ccccc1` (configuration not stated) displayed a melting point of 88 to 90 °C.

Take `CCOC(=O)C(C(=O)C(F)(F)F)=C(Cc1ccccc1)C(N)C(=O)OCC` (configuration not stated): the melting point lay in the range of 63 to 65 °C.

In the case of `COC(=O)COc1ccc(C(C)CNS(=O)(=O)c2ccccc2)cc1F` (configuration not stated), the melting point was 112 to 113 °C.

The compound `O=C(Nc1cccc2[nH]ccc12)c1ccc(Cl)cc1OCC1CO1` (configuration not stated) showed a melting point of 194 °C.

In turn, `Cn1c(=O)nc(-c2ccccc2F)c2c3c(sc21)CCCC3` gave a melting point of 221 to 222 °C.

In the case of `COc1c(C)c(C)c(OC)c(CC[C@](C)(O)CO)c1C`, the melting point fell in the range of 82 to 84 °C.

Regarding `COc1ccc(C2CCN(c3c(C)c(C)c4c(c3C)C(N3CCc5ccccc5CC3)C(C)(C)O4)CC2)cc1OC` (configuration not stated), the melting point lay within 136 to 138 °C.

In turn, `CCCCOc1cccc(C(=O)C=Cc2ccc(OC)cc2OC)c1` showed a melting point of 80.4 to 81.3 °C.

In the case of `Cc1occc1S(=O)(=O)C(C)(Cc1ccccc1)C(=O)NO` (configuration not stated), the melting point was 68 to 70 °C.

`CC(C)CC(NC(=O)OC(C)(C)C)C(O)c1ccccn1` (configuration not stated) had a melting point of 83 to 84 °C.

As for `O=C1CCCc2ccc(OCc3cccc(Cl)c3)cc21`, the melting point was 77 to 78 °C.

Turning to `CCCCCCCCCCCCCCOc1ccc(C(=O)Nc2cccc(CO)c2)cc1`, the melting point was in the range of 112 to 115 °C.

`COc1nc(-c2ccc3c(c2)OCO3)c2cc3c(cc2n1)OCO3` registered a melting point of 216 to 223 °C.

Take `COc1ccc(C#N)cc1-c1cc(-c2ccc(C#N)cc2[N+](=O)[O-])no1`: the melting point is 264 to 266 °C.

In the case of `Nc1nc(N)c2c(ccc3c2ccn3-c2ccncc2)n1`, the melting point is 328 to 330 °C.

Regarding `CCOC(=O)c1cc(CC)sc1Nc1ccc(F)cc1[N+](=O)[O-]`, the melting point stood at 90 °C.

For `CCCCOc1ccc(-n2cc(C(=O)O)cn2)cc1C#N`, the melting point lay in the range of 200 to 202 °C.

`C=CCOc1ccc(OC)cc1C(=O)c1oc2ccc(Cl)cc2c1N` yielded a melting point of 115 to 116 °C.

`CC(C)Cc1ccc(C(CC(=O)O)C(=O)O)s1` (configuration not stated) yielded a melting point of 106 to 108 °C.

As for `CNC1(c2ccc(C#CC(=O)Nc3ccc(-c4ccc(Cl)cc4)cc3)cc2)CC1`, the melting point turned out to be 217 °C.

On to `COCOc1c(-c2cncc3cccc([N+](=O)[O-])c23)ccc(OC)c1OC`, for which the melting point lay within 138 to 140 °C.

`CCOc1ccc2nc(COc3ccc(CC4SC(=O)NC4=O)cc3)n(C)c2n1` (configuration not stated) gave a melting point of 245 to 246 °C.

On to `COc1ccc2c(c1)c(Cc1nc(-c3ccc(F)cc3)cs1)c(C)n2C(=O)c1ccc(Cl)cc1`, for which the melting point was in the range of 172 to 174 °C.

The compound `CN(C)CCNC(=O)c1ccc(OCc2ccc(-c3ccccc3)cc2)nc1` gave a melting point of 151 to 154 °C.

In turn, `COc1ccc(CN(C)CCOc2ccc(NC(=O)c3cccc4c(=O)c5ccccc5[nH]c34)cc2)cc1` yielded a melting point of 146 °C.

`CCC(=O)N(OC(=O)NC)C(=O)NC` showed a melting point of 90.5 to 92.5 °C.

With `NS(=O)(=O)c1ccc(NC(=O)CCl)cc1Cl`, the melting point fell in the range of 214 to 216 °C.

Regarding `O=C(C=Cc1ccc(Cl)cc1)C1(Cl)CC1`, the melting point was 92 °C.

Take `O=C1NCC(Cc2ccccc2Cc2ccccc2)O1` (configuration not stated): the melting point was in the range of 105 to 106 °C.

In turn, `COc1ccc(-c2cc3cc(F)c(F)cc3[nH]2)cc1NCc1cccs1` showed a melting point of 190 to 192 °C.

Compound `CC(Br)CCC(C)(N)P(O)O` (configuration not stated) displayed a melting point of 146 to 148 °C.

Turning to `Cn1cc(-c2ccnnc2)ccc1=O`, the melting point was greater than 250 °C.

`CC(C)n1c(=O)n(CC#N)c2cc(-c3ncc(C(F)(F)F)cc3Cl)ccc21` registered a melting point of 158 to 159 °C.

Compound `CCC(CC)NC(=O)NC/C=C\COc1cc(CN2CCCCC2)ccn1` came in with a melting point of 82 to 84 °C.

`COC(=O)C(=O)c1ccc(OCCOC2CCc3ccccc3C2)cc1` (configuration not stated) displayed a melting point of 86 to 87 °C.

For `O=c1[nH]c2ncc(-c3ccc(-c4cc[nH]n4)cc3)nc2n1CC1CCCCC1`, the melting point lay within 292 to 294 °C.

Compound `CCOC(=O)CC1(c2ccccc2)CNC(=O)C1` (configuration not stated) yielded a melting point of 49 to 51 °C.

With `O=C(Cn1cccn1)c1ccc(F)cc1F`, the melting point was 76.4 °C.
